Drawing on US7495017B2, “Phosphodiesterase 4 inhibitors” (Memory Pharmaceuticals Corporation, priority 2003, dated 2009), this text covers melting point for one compound.

A word on the melting point: it is the temperature of the solid-liquid transition. On to `COc1ccc(-c2ccn[nH]2)cc1O[C@@H]1CCOC1` [Example 1B, 3-[4-Methoxy-3-(3R)-tetrahydrofuranyloxyphenyl]-1H-pyrazole], for which the melting point was in the range of 149 to 151 °C.
